# From article PMC7838034 (Acta Pharmaceutica Sinica. B, 2020)
# Key:
# PARP1 = PARP1 (Homo sapiens, UniProt P09874); test: PARP1 inhibition assay; assay type: biochemical; conditions: tested in duplicate, average; for inhibition at 1 µM: read-out: Inhibition rate PARP1, 1 μmol/L; for inhibition at 10 µM: read-out: Inhibition rate PARP1, 10 μmol/L
# [1] = target: recombinant BRD4(BD1 + BD2) (Homo sapiens, UniProt O60885); test: BRD4 inhibition assay; assay type: binding; conditions: tested in duplicate, average; for inhibition at 1 µM: read-out: Inhibition rate BRD4, 1 μmol/L; for inhibition at 10 µM: read-out: Inhibition rate BRD4, 10 μmol/L
# MDA-MB-468 cells = test: Cell viability assay; assay type: cell-based, human; conditions: Homo sapiens, MDA-MB-468, 24 h, read-out: Anti-proliferative activity (IC50)
# Sequence of PARP1 (P09874 whole entry): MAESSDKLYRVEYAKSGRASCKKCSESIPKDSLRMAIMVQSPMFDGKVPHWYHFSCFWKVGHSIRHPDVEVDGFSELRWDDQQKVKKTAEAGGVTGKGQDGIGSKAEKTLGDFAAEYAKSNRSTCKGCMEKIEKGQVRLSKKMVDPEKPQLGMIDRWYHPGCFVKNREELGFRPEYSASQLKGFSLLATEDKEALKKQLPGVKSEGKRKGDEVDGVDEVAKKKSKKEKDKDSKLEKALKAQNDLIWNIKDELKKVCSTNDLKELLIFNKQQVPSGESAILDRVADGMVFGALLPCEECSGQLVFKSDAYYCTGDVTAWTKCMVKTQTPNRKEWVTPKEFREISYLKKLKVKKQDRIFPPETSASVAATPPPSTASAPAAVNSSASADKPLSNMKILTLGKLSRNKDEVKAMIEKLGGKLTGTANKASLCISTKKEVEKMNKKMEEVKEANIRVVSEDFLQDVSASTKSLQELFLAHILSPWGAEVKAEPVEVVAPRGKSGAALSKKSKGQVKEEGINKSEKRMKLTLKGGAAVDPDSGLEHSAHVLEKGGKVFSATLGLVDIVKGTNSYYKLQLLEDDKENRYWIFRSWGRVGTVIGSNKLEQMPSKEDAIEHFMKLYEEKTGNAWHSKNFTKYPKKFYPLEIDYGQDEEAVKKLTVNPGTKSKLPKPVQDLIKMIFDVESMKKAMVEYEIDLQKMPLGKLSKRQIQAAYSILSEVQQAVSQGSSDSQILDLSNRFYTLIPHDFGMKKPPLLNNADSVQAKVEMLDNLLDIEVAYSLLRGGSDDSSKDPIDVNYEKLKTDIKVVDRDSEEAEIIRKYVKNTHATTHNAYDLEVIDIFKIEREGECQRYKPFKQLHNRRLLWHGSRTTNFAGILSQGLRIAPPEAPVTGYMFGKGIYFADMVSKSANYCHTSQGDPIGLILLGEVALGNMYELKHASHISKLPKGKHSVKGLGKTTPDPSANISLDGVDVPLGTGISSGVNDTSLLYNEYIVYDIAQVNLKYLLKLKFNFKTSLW
SMILES,inhibition at 1 µM (PARP1),inhibition at 10 µM (PARP1),inhibition at 1 µM [1],inhibition at 10 µM [1],IC50 (MDA-MB-468 cells)
"COc1cc(OC)c2c(=O)[nH]c(-c3cc(Cl)ccc3OCCCCOc3ccccc3C(N)=O)nc2c1 [Compound 19c, 2-(4-(4-Chloro-2-(5,7-dimethoxy-4-oxo-3,4-dihydroquinazolin-2-yl)phenoxy)butoxy)benzamide]",29%,84%,7%,54%,7.4 ± 1.8 µM
"COc1cc(OC)c2c(=O)[nH]c(-c3cc(OC)c(OCCOn4nnc5ccccc54)c(OC)c3)nc2c1 [Compound 19j, 2-(4-(2-((1H-Benzo[d][1,2,3]triazol-1-yl)oxy)ethoxy)-3,5-dimethoxyphenyl)-5,7-dimethoxyquinazolin-4(3H)-one]",6%,18%,12%,64%,> 30 µM
"COc1cc(OC)c2c(=O)[nH]c(-c3cc(C)c(OCCOc4ccc5cn[nH]c5c4)c(C)c3)nc2c1 [Compound 19m, 2-(4-(2-((1H-Indazol-6-yl)oxy)ethoxy)-3,5-dimethylphenyl)-5,7-dimethoxyquinazolin-4(3H)-one]",7%,11%,15%,46%,> 30 µM
"COc1cc(OC)c2c(=O)[nH]c(-c3cc(OC)c(OCCOc4ccc5cn[nH]c5c4)c(OC)c3)nc2c1 [Compound 19n, 2-(4-(2-((1H-Indazol-6-yl)oxy)ethoxy)-3,5-dimethoxyphenyl)-5,7-dimethoxyquinazolin-4(3H)-one]",9%,16%,14%,45%,> 30 µM
"COc1cc(OC)c2c(=O)[nH]c(-c3ccc(OCCOc4ccc5cn[nH]c5c4)cc3)nc2c1 [Compound 19o, 2-(4-(2-((1H-Indazol-6-yl)oxy)ethoxy)phenyl)-5,7-dimethoxyquinazolin-4(3H)-one]",3%,13%,3%,56%,> 30 µM
"COc1cc(OC)c2c(=O)[nH]c(-c3ccc(OCCOn4nnc5ccccc54)c(Cl)c3)nc2c1 [Compound 19p, 2-(4-(2-((1H-Benzo[d][1,2,3]triazol-1-yl)oxy)ethoxy)-3-chlorophenyl)-5,7-dimethoxyquinazolin-4(3H)-one]",3%,6%,3%,44%,> 30 µM
"COc1cc(OC)c2c(=O)[nH]c(-c3ccc(OCCOc4ccc5nc[nH]c(=O)c5c4)cc3)nc2c1 [Compound 19t, 5,7-Dimethoxy-2-(4-(2-((4-oxo-3,4-dihydroquinazolin-6-yl)oxy)ethoxy)phenyl)quinazolin-4(3H)-one]",1%,25%,9%,67%,> 30 µM
"COc1cc(OC)c2c(=O)[nH]c(-c3cc(C)c(OCCO)c(C)c3)nc2c1 [RVX-208, reference compound]",1%,4%,20%,60%,> 30 µM

# Continued, values first:
inhibition at 1 µM (PARP1),inhibition at 10 µM (PARP1),inhibition at 1 µM [1],inhibition at 10 µM [1],IC50 (MDA-MB-468 cells),SMILES
30%,85%,31%,90%,6 ± 0.9 µM,"COc1cc(OC)c2c(=O)[nH]c(-c3cc(Cl)ccc3OCCOc3ccccc3C(N)=O)nc2c1 [Compound 19a, 2-(2-(4-Chloro-2-(5,7-dimethoxy-4-oxo-3,4-dihydroquinazolin-2-yl)phenoxy)ethoxy)benzamide]"
35%,81%,3%,69%,10.9 ± 0.5 µM,"COc1cc(OC)c2c(=O)[nH]c(-c3cc(Cl)ccc3OCCCOc3ccccc3C(N)=O)nc2c1 [Compound 19b, 2-(3-(4-Chloro-2-(5,7-dimethoxy-4-oxo-3,4-dihydroquinazolin-2-yl)phenoxy)propoxy)benzamide]"
18%,71%,4%,55%,15.3 ± 3.6 µM,"COc1cc(OC)c2c(=O)[nH]c(-c3cc(Cl)ccc3OCCCCCOc3ccccc3C(N)=O)nc2c1 [Compound 19e, 2-((5-(4-Chloro-2-(5,7-dimethoxy-4-oxo-3,4-dihydroquinazolin-2-yl)phenoxy)pentyl)oxy)benzamide]"
40%,79%,11%,74%,8.4 ± 1.3 µM,"COc1cc(OC)c2c(=O)[nH]c(-c3cc(C)c(OCCOc4ccccc4C(N)=O)c(C)c3)nc2c1 [Compound 19f, 2-(2-(4-(5,7-Dimethoxy-4-oxo-3,4-dihydroquinazolin-2-yl)-2,6-dimethylphenoxy)ethoxy)benzamide]"
25%,70%,15%,72%,5.7 ± 2.1 µM,"COc1cc(OC)c2c(=O)[nH]c(-c3cc(OC)c(OCCOc4ccccc4C(N)=O)c(OC)c3)nc2c1 [Compound 19g, 2-(2-(4-(5,7-Dimethoxy-4-oxo-3,4-dihydroquinazolin-2-yl)-2,6-dimethoxyphenoxy)ethoxy)benzamide]"
31%,65%,12%,62%,11.8 ± 3.4 µM,"COc1cc(OC)c2c(=O)[nH]c(-c3ccc(OCCOc4ccccc4C(N)=O)c(F)c3)nc2c1 [Compound 19h, 2-(2-(4-(5,7-Dimethoxy-4-oxo-3,4-dihydroquinazolin-2-yl)-2-fluorophenoxy)ethoxy)benzamide]"
11%,18%,18%,61%,> 30 µM,"COc1cc(OC)c2c(=O)[nH]c(-c3cc(C)c(OCCOn4nnc5ccccc54)c(C)c3)nc2c1 [Compound 19i, 2-(4-(2-((1H-Benzo[d][1,2,3]triazol-1-yl)oxy)ethoxy)-3,5-dimethylphenyl)-5,7-dimethoxyquinazolin-4(3H)-one]"
7%,29%,13%,83%,22.9 ± 2.4 µM,"COc1cc(OC)c2c(=O)[nH]c(-c3ccc(OCCOn4nnc5ccccc54)cc3)nc2c1 [Compound 19k, 2-(4-(2-((1H-Benzo[d][1,2,3]triazol-1-yl)oxy)ethoxy)phenyl)-5,7-dimethoxyquinazolin-4(3H)-one]"
1%,14%,29%,80%,23.7 ± 3.3 µM,"COc1cc(OC)c2c(=O)[nH]c(-c3ccc(OCCOn4nnc5ccccc54)c(F)c3)nc2c1 [Compound 19l, 2-(4-(2-((1H-Benzo[d][1,2,3]triazol-1-yl)oxy)ethoxy)-3-fluorophenyl)-5,7-dimethoxyquinazolin-4(3H)-one]"
12%,65%,8%,74%,8.7 ± 5.2 µM,"COc1cc(OC)c2c(=O)[nH]c(-c3cc(F)ccc3OCCOc3ccccc3C(N)=O)nc2c1 [Compound 19s, 2-(2-(2-(5,7-Dimethoxy-4-oxo-3,4-dihydroquinazolin-2-yl)-4-fluorophenoxy)ethoxy)benzamide]"
36%,81%,6%,77%,6.7 ± 2.4 µM,"COc1cc(OC)c2c(=O)[nH]c(-c3ccc(OCCOc4ccncc4C(N)=O)cc3)nc2c1 [Compound 19u, 4-(2-(4-(5,7-Dimethoxy-4-oxo-3,4-dihydroquinazolin-2-yl)phenoxy)ethoxy)nicotinamide]"
